Results from ChEMBL document CHEMBL1121467, “Prostaglandins and congeners. 25. Inhibition of gastric acid secretion. Replacement of the carboxylate moiety of a prostaglandin with a hydroxymethylketo functional group” (1980).

How the values were obtained:
Canis familiaris [1] = assay: Inhibition of gastric acid secretion (cumulative 75 min) in the dog fistula preparation was measured as acid output, after intragastric administration of 10 ug/kg; format: functional, Canis lupus familiaris, Stomach
Canis familiaris [2] = assay: Inhibition of gastric acid secretion (cumulative 75 min) in the dog fistula preparation was measured as total volume, after intragastric administration of 10 ug/kg; format: functional, Canis lupus familiaris, Stomach

SMILES	Acid output (Canis familiaris [1])	Volume (Canis familiaris [2]) [mL]
CCCCC(C)(O)C/C=C/C1[C@H](O)CC(=O)[C@@H]1CCCCCCC(=O)CO (some centres undefined)	6.9 m equiv [H+] l-1	59
CCCCC(C)(O)C/C=C/C1[C@H](O)CC(=O)[C@@H]1C/C=C/CCCC(=O)CO (some centres undefined)	7.5 m equiv [H+] l-1	76
